Experimental data published in the kinase profiling compilation of Christmann-Franck et al. (2016).

Experiments:
Test in all cases: radiometric filter-binding kinase assay
RPS6KA5 KD1 KD2 (human) = RPS6KA5 KD1 KD2 (human) (UniProt O75582)
CSNK1D (human) = CSNK1D (human) (UniProt P48730)
[1] = biological target: STK11 CAB39 STRADA (human) (UniProt Q9Y376+Q7RTN6+Q15831)
MARK3 (human) = MARK3 (human) (UniProt P27448)
PRKCA (human) = PRKCA (human) (UniProt P17252)
MAP3K9 (human) = MAP3K9 (human) (UniProt P80192)
AURKA (human) = AURKA (human) (UniProt O14965)
MARK4 (human) = MARK4 (human) (UniProt Q96L34)
MAPK15 (human) = MAPK15 (human) (UniProt Q8TD08)
MAPK14 (human) = MAPK14 (human) (UniProt Q16539)
RIPK2 (human) = RIPK2 (human) (UniProt O43353)
[2] = test system: AKT2 (human), P31751 [S474D]
IRAK4 (human) = IRAK4 (human) (UniProt Q9NWZ3)
NEK2 (human) = NEK2 (human) (UniProt P51955)
MAPK11 (human) = MAPK11 (human) (UniProt Q15759)
MKNK2 (human) = MKNK2 (human) (UniProt Q9HBH9)
NEK6 (human) = NEK6 (human) (UniProt Q9HC98)
FLT1 (human) = FLT1 (human) (UniProt P17948)
INSRR (human) = INSRR (human) (UniProt P14616)
JAK2 JH1 JH2 (human) = JAK2 JH1 JH2 (human) (UniProt O60674)
HIPK1 (human) = HIPK1 (human) (UniProt Q86Z02)
[3] = test system: RPS6KB1 (human), P23443 [T412E]
SRPK1 (human) = SRPK1 (human) (UniProt Q96SB4)
CLK2 (human) = CLK2 (human) (UniProt P49760)
MAPKAPK3 (human) = MAPKAPK3 (human) (UniProt Q16644)
HIPK2 (human) = HIPK2 (human) (UniProt Q9H2X6)
MAP3K1 (human) = MAP3K1 (human) (UniProt Q13233)
YES1 (human) = YES1 (human) (UniProt P07947)
CSNK2A1 (human) = CSNK2A1 (human) (UniProt P68400)
BTK (human) = BTK (human) (UniProt Q06187); details: compound 1.0 µM
NTRK1 (human) = NTRK1 (human) (UniProt P04629)
RPS6KA1 KD1 KD2 (human) = RPS6KA1 KD1 KD2 (human) (UniProt Q15418)
MAPK1 (human) = MAPK1 (human) (UniProt P28482)
INSR (human) = INSR (human) (UniProt P06213)
DYRK2 (human) = DYRK2 (human) (UniProt Q92630)

Chain of RPS6KA1 KD1 KD2 (human) (Q15418 whole entry, looked up): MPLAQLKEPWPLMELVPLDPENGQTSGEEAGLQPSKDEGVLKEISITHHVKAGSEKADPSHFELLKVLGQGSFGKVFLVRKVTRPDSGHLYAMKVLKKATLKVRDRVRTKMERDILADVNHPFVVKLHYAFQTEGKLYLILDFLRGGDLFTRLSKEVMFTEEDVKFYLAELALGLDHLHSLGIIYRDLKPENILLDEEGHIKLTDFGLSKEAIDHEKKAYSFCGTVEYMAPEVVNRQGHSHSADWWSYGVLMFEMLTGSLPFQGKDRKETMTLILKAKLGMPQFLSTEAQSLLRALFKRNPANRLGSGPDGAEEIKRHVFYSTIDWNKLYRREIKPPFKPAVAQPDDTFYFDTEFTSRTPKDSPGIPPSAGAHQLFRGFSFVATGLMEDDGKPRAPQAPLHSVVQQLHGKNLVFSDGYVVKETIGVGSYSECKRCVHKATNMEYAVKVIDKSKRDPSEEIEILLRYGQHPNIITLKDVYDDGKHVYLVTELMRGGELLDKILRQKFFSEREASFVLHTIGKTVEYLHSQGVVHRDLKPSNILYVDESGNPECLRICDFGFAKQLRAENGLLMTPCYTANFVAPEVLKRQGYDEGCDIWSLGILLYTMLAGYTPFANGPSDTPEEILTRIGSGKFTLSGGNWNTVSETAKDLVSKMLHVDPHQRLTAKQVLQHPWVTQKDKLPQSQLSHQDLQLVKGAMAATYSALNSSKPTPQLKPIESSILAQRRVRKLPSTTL
Chain of NEK6 (human) (Q9HC98 whole entry, looked up): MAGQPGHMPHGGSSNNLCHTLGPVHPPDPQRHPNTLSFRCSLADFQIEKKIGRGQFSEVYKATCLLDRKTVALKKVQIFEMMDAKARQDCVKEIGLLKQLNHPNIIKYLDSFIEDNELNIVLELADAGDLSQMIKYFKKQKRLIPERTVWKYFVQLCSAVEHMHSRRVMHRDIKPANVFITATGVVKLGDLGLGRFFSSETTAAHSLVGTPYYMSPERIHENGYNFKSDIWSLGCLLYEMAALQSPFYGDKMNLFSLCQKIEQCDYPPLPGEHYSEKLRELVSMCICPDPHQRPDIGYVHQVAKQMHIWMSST
Chain of HIPK1 (human) (Q86Z02 whole entry, looked up): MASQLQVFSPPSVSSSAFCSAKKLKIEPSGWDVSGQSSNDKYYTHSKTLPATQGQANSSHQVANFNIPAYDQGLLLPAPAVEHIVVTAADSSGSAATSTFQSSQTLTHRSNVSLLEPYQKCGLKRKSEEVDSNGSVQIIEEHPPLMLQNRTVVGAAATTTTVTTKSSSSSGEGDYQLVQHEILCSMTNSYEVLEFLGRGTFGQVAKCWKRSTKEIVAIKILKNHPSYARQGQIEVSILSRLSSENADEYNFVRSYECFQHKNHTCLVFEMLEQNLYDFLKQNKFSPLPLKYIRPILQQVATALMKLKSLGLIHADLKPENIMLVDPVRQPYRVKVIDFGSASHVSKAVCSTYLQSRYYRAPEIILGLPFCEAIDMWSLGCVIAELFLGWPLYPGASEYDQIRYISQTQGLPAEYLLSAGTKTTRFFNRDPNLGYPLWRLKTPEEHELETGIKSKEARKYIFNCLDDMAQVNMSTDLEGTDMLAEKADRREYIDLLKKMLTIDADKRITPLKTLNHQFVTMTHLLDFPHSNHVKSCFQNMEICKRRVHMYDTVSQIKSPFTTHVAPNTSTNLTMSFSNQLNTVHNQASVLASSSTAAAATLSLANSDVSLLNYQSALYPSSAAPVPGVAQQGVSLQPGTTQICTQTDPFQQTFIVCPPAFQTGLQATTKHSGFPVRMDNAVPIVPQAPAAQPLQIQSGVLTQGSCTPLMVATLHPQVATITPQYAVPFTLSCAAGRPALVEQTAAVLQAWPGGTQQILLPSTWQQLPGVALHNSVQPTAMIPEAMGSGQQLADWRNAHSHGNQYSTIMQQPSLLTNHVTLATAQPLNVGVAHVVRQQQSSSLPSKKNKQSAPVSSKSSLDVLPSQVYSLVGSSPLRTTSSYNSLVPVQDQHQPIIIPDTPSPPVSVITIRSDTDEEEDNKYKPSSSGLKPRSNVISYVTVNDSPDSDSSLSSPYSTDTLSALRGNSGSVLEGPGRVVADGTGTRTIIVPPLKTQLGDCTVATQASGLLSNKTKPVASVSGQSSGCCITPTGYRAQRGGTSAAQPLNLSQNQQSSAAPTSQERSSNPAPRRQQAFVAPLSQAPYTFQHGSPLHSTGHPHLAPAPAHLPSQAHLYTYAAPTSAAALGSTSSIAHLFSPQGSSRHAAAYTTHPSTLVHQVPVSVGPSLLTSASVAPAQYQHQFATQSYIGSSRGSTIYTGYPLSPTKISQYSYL
Chain of MAPK14 (human) (Q16539 whole entry, looked up): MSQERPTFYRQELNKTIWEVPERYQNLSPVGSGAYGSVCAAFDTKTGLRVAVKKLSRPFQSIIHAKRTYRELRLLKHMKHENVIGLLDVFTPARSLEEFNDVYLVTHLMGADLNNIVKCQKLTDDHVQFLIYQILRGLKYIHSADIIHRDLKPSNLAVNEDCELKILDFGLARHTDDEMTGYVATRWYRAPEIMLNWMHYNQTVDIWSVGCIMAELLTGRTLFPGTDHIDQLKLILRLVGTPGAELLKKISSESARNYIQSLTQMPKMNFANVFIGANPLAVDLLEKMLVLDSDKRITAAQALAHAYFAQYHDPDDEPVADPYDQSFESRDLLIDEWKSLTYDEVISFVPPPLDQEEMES
Chain of MAPK11 (human) (Q15759 whole entry, looked up): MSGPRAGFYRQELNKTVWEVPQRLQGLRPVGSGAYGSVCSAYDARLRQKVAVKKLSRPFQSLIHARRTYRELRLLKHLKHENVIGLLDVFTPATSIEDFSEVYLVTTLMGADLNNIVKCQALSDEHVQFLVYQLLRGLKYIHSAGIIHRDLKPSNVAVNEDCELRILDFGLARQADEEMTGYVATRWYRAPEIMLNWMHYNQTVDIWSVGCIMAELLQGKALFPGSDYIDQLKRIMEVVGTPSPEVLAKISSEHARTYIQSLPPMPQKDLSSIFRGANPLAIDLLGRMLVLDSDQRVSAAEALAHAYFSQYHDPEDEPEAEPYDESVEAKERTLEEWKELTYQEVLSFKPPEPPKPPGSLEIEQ
Chain of MAPK1 (human) (P28482 whole entry, looked up): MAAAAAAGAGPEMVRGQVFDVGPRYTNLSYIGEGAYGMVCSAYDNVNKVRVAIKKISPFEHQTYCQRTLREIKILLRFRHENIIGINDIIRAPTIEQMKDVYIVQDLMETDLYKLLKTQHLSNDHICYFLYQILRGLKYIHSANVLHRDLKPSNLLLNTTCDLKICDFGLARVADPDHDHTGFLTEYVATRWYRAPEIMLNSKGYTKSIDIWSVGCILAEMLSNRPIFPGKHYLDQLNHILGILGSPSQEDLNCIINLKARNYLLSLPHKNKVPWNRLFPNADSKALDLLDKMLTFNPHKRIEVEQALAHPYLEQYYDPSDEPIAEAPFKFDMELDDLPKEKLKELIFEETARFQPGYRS
Chain of RPS6KA5 KD1 KD2 (human) (O75582 whole entry, looked up): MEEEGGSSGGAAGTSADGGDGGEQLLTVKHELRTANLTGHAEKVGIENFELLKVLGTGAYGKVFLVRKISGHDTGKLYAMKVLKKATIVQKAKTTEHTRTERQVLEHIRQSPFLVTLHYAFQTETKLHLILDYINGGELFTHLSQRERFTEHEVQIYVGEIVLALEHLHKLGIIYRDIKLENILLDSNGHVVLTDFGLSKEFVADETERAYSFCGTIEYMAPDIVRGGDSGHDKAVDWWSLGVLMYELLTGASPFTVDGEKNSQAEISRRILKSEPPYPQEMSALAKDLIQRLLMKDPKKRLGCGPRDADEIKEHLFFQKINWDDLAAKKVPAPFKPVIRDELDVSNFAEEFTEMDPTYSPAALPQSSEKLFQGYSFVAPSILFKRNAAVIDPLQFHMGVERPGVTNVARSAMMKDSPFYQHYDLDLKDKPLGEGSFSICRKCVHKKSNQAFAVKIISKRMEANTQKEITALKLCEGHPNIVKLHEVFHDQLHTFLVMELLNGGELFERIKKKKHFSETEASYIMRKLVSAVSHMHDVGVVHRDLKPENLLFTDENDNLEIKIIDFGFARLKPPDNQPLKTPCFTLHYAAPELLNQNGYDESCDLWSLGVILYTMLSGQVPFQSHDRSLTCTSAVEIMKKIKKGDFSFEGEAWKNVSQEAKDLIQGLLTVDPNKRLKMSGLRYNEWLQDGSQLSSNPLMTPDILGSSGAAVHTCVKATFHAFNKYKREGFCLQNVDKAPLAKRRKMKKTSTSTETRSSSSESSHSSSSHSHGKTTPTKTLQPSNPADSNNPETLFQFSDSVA

residual activity (RPS6KA5 KD1 KD2 (human); compound 1.0 µM): 85%
residual activity (RPS6KA5 KD1 KD2 (human); compound 10.0 µM): 65%
residual activity (CSNK1D (human); compound 1.0 µM): 95%
residual activity (CSNK1D (human); compound 10.0 µM): 67%
residual activity ([1]; compound 1.0 µM): 88%
residual activity ([1]; compound 10.0 µM): 92%
residual activity (MARK3 (human); compound 1.0 µM): 91%
residual activity (MARK3 (human); compound 10.0 µM): 61%
residual activity (PRKCA (human); compound 1.0 µM): 96%
residual activity (PRKCA (human); compound 10.0 µM): 101%
residual activity (MAP3K9 (human); compound 1.0 µM): 39%
residual activity (MAP3K9 (human); compound 10.0 µM): 7%
residual activity (AURKA (human); compound 1.0 µM): 105%
residual activity (AURKA (human); compound 10.0 µM): 81%
residual activity (MARK4 (human); compound 1.0 µM): 95%
residual activity (MARK4 (human); compound 10.0 µM): 52%
residual activity (MAPK14 (human); compound 1.0 µM): 84%
residual activity (MAPK14 (human); compound 10.0 µM): 119%
residual activity (RIPK2 (human); compound 1.0 µM): 94%
residual activity (RIPK2 (human); compound 10.0 µM): 79%
residual activity ([2]; compound 1.0 µM): 99%
residual activity ([2]; compound 10.0 µM): 98%
residual activity (IRAK4 (human); compound 1.0 µM): 90%
residual activity (IRAK4 (human); compound 10.0 µM): 93%
residual activity (NEK2 (human); compound 1.0 µM): 97%
residual activity (NEK2 (human); compound 10.0 µM): 72%
residual activity (MAPK11 (human); compound 1.0 µM): 98%
residual activity (MAPK11 (human); compound 10.0 µM): 101%
residual activity (MKNK2 (human); compound 1.0 µM): 58%
residual activity (MKNK2 (human); compound 10.0 µM): 22%
residual activity (NEK6 (human); compound 1.0 µM): 112%
residual activity (NEK6 (human); compound 10.0 µM): 90%
residual activity (FLT1 (human); compound 1.0 µM): 55%
residual activity (FLT1 (human); compound 10.0 µM): 14%
residual activity (INSRR (human); compound 1.0 µM): 84%
residual activity (INSRR (human); compound 10.0 µM): 67%
residual activity (JAK2 JH1 JH2 (human); compound 1.0 µM): 79%
residual activity (JAK2 JH1 JH2 (human); compound 10.0 µM): 52%
residual activity (HIPK1 (human); compound 1.0 µM): 92%
residual activity (HIPK1 (human); compound 10.0 µM): 49%
residual activity ([3]; compound 1.0 µM): 89%
residual activity ([3]; compound 10.0 µM): 68%
residual activity (SRPK1 (human); compound 1.0 µM): 84%
residual activity (SRPK1 (human); compound 10.0 µM): 69%
residual activity (CLK2 (human); compound 1.0 µM): 36%
residual activity (CLK2 (human); compound 10.0 µM): 5%
residual activity (MAPKAPK3 (human); compound 1.0 µM): 108%
residual activity (MAPKAPK3 (human); compound 10.0 µM): 124%
residual activity (HIPK2 (human); compound 1.0 µM): 70%
residual activity (HIPK2 (human); compound 10.0 µM): 28%
residual activity (MAP3K1 (human); compound 1.0 µM): 90%
residual activity (MAP3K1 (human); compound 10.0 µM): 109%
residual activity (YES1 (human); compound 1.0 µM): 89%
residual activity (YES1 (human); compound 10.0 µM): 110%
residual activity (CSNK2A1 (human); compound 1.0 µM): 96%
residual activity (CSNK2A1 (human); compound 10.0 µM): 74%
residual activity (BTK (human)): 115%
residual activity (NTRK1 (human); compound 1.0 µM): 70%
residual activity (NTRK1 (human); compound 10.0 µM): 54%
residual activity (RPS6KA1 KD1 KD2 (human); compound 1.0 µM): 54%
residual activity (RPS6KA1 KD1 KD2 (human); compound 10.0 µM): 14%
residual activity (MAPK1 (human); compound 1.0 µM): 95%
residual activity (MAPK1 (human); compound 10.0 µM): 55%
residual activity (INSR (human); compound 1.0 µM): 50%
residual activity (INSR (human); compound 10.0 µM): 3%
residual activity (DYRK2 (human); compound 1.0 µM): 40%
residual activity (DYRK2 (human); compound 10.0 µM): 9%
SMILES: COc1cc(C(=O)N2CCOCC2)c(F)cc1Nc1ncc(C(F)(F)F)c(NC2CC2)n1
residual activity (MAPK15 (human); compound 1.0 µM): 81%
residual activity (MAPK15 (human); compound 10.0 µM): 28%
